Test systems include K562; HOP-92; TK-10; OVCAR-8; NCI-H522; HL-60; COLO 205; 786-0; UACC-62; RPMI-8226; UACC-257; MDA-N; Hs-578T; DU-145; SF-268; SK-OV-3; OVCAR-4; HCC 2998; BT-549; M19-MEL.
Assay in all cases: NCI tumour cell line growth inhibition, 48 h

Each structure is given as a SMILES string.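 The compound was tested at five concentrations on cells cultured in 96-well plates, with a 48-hour exposure period. GI50 marks 50% less growth.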 Calls of active or inactive are those of the source. Cut-off read from the data, not from the text of the source: active = GI50 up to about 1.1 µM and inactive = higher.

`CSc1nc(=O)c2nc(-c3cccs3)c(-c3cccs3)nc2n1C`: the GI50 was > 100 µM (inactive) with K562; 28.8 µM (inactive) in the assay with HOP-92; > 100 µM (inactive) with TK-10; 29.3 µM (inactive) with OVCAR-8; 31 µM (inactive) with NCI-H522; 96.6 µM (inactive) in the assay with HL-60. Besides, the GI50 was > 100 µM (inactive) in the assay with COLO 205; 30.2 µM (inactive) in the assay on 786-0; 41.7 µM (inactive) in the assay on UACC-62; > 100 µM (inactive) in the assay on RPMI-8226; > 100 µM (inactive) in the assay with UACC-257; > 100 µM (inactive) with MDA-N. Besides, the GI50 was 35.6 µM (inactive) in the assay with Hs-578T; 34.3 µM (inactive) in the assay with DU-145; 37.2 µM (inactive) with SF-268; 26.8 µM (inactive) with SK-OV-3; 30.7 µM (inactive) in the assay with OVCAR-4; > 100 µM (inactive) in the assay with HCC 2998. Besides, the GI50 in the assay with BT-549 is 34.5 µM (inactive).
As to `Cc1cc2nc3c(C(OC4OC(CO)C(O)C(O)C4O)C(O)CO)nn(-c4ccc(F)cc4)c3nc2cc1C` (stereo not given), the GI50 with K562, in the assay on TK-10, with OVCAR-8, in the assay with NCI-H522, in the assay with 786-0 and with UACC-62 was > 100 µM (inactive) each time. For the same compound, the GI50 in the assay with RPMI-8226, in the assay with UACC-257, in the assay on M19-MEL, in the assay with SF-268, in the assay with SK-OV-3 and in the assay on OVCAR-4 was > 100 µM (inactive) throughout. Moreover, in the assay on HCC 2998, the GI50 is > 100 µM (inactive).
Turning to `CCCC(=O)OCC1OC(n2cc(F)c(=O)[nH]c2=O)CC1OC(=O)CCC` (stereo not given), the GI50 in the assay on K562 was 1.16 µM (inactive); in the assay on HOP-92 it was 0.509 µM (active); in the assay with TK-10, 2.25 µM (inactive); with OVCAR-8 it was 0.203 µM (active); in the assay with NCI-H522, 5.22 µM (inactive); with HL-60, 0.247 µM (active). The GI50 in the assay with COLO 205 was > 6.5 µM (inactive); in the assay on 786-0, 0.434 µM (active); in the assay with UACC-62, 0.177 µM (active); with RPMI-8226, 0.973 µM (active); with UACC-257, 3.79 µM (inactive); in the assay on MDA-N, 1.25 µM (inactive). Moreover, the GI50 is 2.32 µM (inactive) in the assay on Hs-578T; 0.156 µM (active) in the assay on DU-145; 0.0368 µM (active) in the assay with SF-268; > 2.93 µM (inactive) with SK-OV-3; > 10 µM (inactive) in the assay with OVCAR-4; 0.0113 µM (active) in the assay on HCC 2998. The GI50 with BT-549 is 0.376 µM (active).
On to `Cc1n[nH]c(=S)n(C)c1=S`, for which the GI50 was > 100 µM (inactive) in the assay with K562; 91.2 µM (inactive) in the assay on HOP-92; > 100 µM (inactive) in the assay with TK-10; > 100 µM (inactive) with OVCAR-8; > 100 µM (inactive) in the assay with NCI-H522; > 100 µM (inactive) in the assay on COLO 205. The GI50 in the assay with 786-0, in the assay on UACC-62, in the assay with RPMI-8226, in the assay with M19-MEL, in the assay with SF-268 and in the assay with SK-OV-3 was > 100 µM (inactive) throughout. In the assay with OVCAR-4, the GI50 was > 100 µM (inactive).
For the compound `O=C1CCCC1CN1CCCC1` (stereo not given), the GI50 was 0.251 µM (active) in the assay with K562; 6.56 µM (inactive) with HOP-92; 12.5 µM (inactive) in the assay with TK-10; 17.3 µM (inactive) in the assay with OVCAR-8; < 0.0275 µM (active) in the assay with NCI-H522; 0.367 µM (active) in the assay on HL-60. Also, the GI50 in the assay on COLO 205 was 3.78 µM (inactive); in the assay on 786-0, 5.22 µM (inactive); in the assay on UACC-62, 17.7 µM (inactive); with RPMI-8226, 0.431 µM (active); with UACC-257 it was 15.2 µM (inactive); with MDA-N, 13.5 µM (inactive). In addition, the GI50 is 22.2 µM (inactive) in the assay with Hs-578T; 30.5 µM (inactive) with DU-145; 21.6 µM (inactive) with SF-268; 13.8 µM (inactive) with SK-OV-3; 1.93 µM (inactive) with OVCAR-4; > 45.2 µM (inactive) in the assay with HCC 2998. For the same compound, in the assay with BT-549, the GI50 was 1.56 µM (inactive).
Regarding `N#Cc1c(C[n+]2ccccc2)c2ccccc2oc1=O`, the GI50 with K562, in the assay with OVCAR-8, in the assay with NCI-H522, with COLO 205, in the assay with 786-0 and in the assay on UACC-62 was > 100 µM (inactive) each time. For the same compound, the GI50 is > 100 µM (inactive) in the assay with RPMI-8226; > 100 µM (inactive) in the assay on UACC-257; > 100 µM (inactive) in the assay with M19-MEL; > 100 µM (inactive) in the assay with SF-268; > 100 µM (inactive) with SK-OV-3; 22.7 µM (inactive) in the assay on OVCAR-4. Besides, in the assay with HCC 2998, the GI50 was > 100 µM (inactive).
For the compound `CN(C)C(=S)/N=c1\ssc(=S)n1Cc1ccncc1`, the GI50 in the assay on K562 was 18.3 µM (inactive); in the assay on TK-10 it was 25 µM (inactive); in the assay on OVCAR-8, 23.1 µM (inactive); with NCI-H522 it was 1.49 µM (inactive); in the assay with COLO 205, > 100 µM (inactive); with 786-0, 21.7 µM (inactive). Moreover, the GI50 with UACC-62 was 10 µM (inactive); with UACC-257 it was 26.7 µM (inactive); with M19-MEL it was 10.7 µM (inactive); in the assay on SF-268, 24.3 µM (inactive); with SK-OV-3, 25.2 µM (inactive); with OVCAR-4 it was 20 µM (inactive). Besides, in the assay on HCC 2998, the GI50 is 21.1 µM (inactive).
Turning to `O=C[C@]12CC=C3OC4OC5(CCCCC5)OC4[C@H]3[C@H]1C(=O)C=CC2=O` (stereo not given in full), the GI50 in the assay on K562 was > 10 µM (inactive); in the assay with TK-10 it was 35.1 µM (inactive); in the assay with OVCAR-8, 17.6 µM (inactive); in the assay with NCI-H522, 5.9 µM (inactive); in the assay on HL-60, 0.406 µM (active); with 786-0, 9.84 µM (inactive). The GI50 was 21.5 µM (inactive) with UACC-62; 21.1 µM (inactive) in the assay with UACC-257; 23.1 µM (inactive) in the assay on M19-MEL; 8.71 µM (inactive) in the assay on SF-268; 45.8 µM (inactive) in the assay with SK-OV-3; 16.7 µM (inactive) with OVCAR-4. Moreover, the GI50 in the assay with HCC 2998 is 32.7 µM (inactive).
As for `CC1=C(c2nc3ccccc3s2)C(=O)OC1(C)C`, the GI50 in the assay on K562, in the assay with OVCAR-8, in the assay on NCI-H522, in the assay on COLO 205, in the assay on 786-0 and in the assay on UACC-62 was > 100 µM (inactive) each time. Moreover, the GI50 in the assay with RPMI-8226, in the assay on UACC-257, in the assay with M19-MEL, in the assay on SF-268, in the assay on SK-OV-3 and with OVCAR-4 was > 100 µM (inactive) in each case. Further, the GI50 in the assay with HCC 2998 is > 100 µM (inactive).
As to `O=C(O)[C@H]1NC[C@H]2C(Br)=NO[C@@H]12`, the GI50 in the assay on K562, in the assay on HOP-92, in the assay on TK-10, with OVCAR-8, in the assay on NCI-H522 and in the assay with HL-60 was > 100 µM (inactive) in each case. The GI50 in the assay with COLO 205, with 786-0, in the assay with UACC-62, in the assay with RPMI-8226, in the assay on UACC-257 and with MDA-N was > 100 µM (inactive) throughout. The GI50 in the assay with Hs-578T, in the assay on DU-145, in the assay with SF-268, in the assay on SK-OV-3, with OVCAR-4 and in the assay on HCC 2998 was > 100 µM (inactive) throughout. The GI50 with BT-549 was > 100 µM (inactive).
As for `COc1ccc(N2C(=O)C3CC(c4ccc(Br)cc4)c4c([nH]c5ccccc45)C3C2=O)cc1` (stereo not given), the GI50 in the assay on K562 was 5.37 µM (inactive); in the assay on HOP-92 it was 12.3 µM (inactive); with TK-10 it was 7.1 µM (inactive); in the assay with OVCAR-8, 2.13 µM (inactive); with HL-60, 12.8 µM (inactive); with COLO 205, 9.02 µM (inactive). Besides, the GI50 in the assay on 786-0 is 2.2 µM (inactive); in the assay on UACC-62 it was 16.1 µM (inactive); in the assay on RPMI-8226, 26.7 µM (inactive); in the assay on UACC-257, 17.3 µM (inactive); in the assay with M19-MEL, 10.2 µM (inactive); in the assay on SF-268, 6.78 µM (inactive). Further, the GI50 in the assay with OVCAR-4 is 3.25 µM (inactive).
As for `COc1cc(/C=C/C(=O)O)ccc1OS(=O)(=O)O`, the GI50 with K562, in the assay on HOP-92, in the assay on TK-10, in the assay with OVCAR-8, in the assay on NCI-H522 and in the assay with HL-60 was > 100 µM (inactive) in each case. In addition, the GI50 in the assay with COLO 205, with 786-0, with UACC-62, in the assay on RPMI-8226, in the assay on UACC-257 and in the assay on MDA-N was > 100 µM (inactive) throughout. The GI50 in the assay with Hs-578T, with DU-145, with SF-268, in the assay on SK-OV-3, in the assay on OVCAR-4 and in the assay on HCC 2998 was > 100 µM (inactive) each time. Besides, the GI50 in the assay with BT-549 is > 100 µM (inactive).
`COc1cc2oc(-c3ccc(O)cc3)cc(=O)c2c(OC)c1O`: the GI50 with K562 is 60.5 µM (inactive); in the assay on HOP-92, 27.9 µM (inactive); with TK-10, 51.4 µM (inactive); in the assay on OVCAR-8, 49.7 µM (inactive); in the assay on NCI-H522, 29.8 µM (inactive); in the assay with HL-60, 21.2 µM (inactive). The GI50 is > 100 µM (inactive) with COLO 205; 36 µM (inactive) with 786-0; 99.5 µM (inactive) in the assay on UACC-62; 89.9 µM (inactive) in the assay on RPMI-8226; > 100 µM (inactive) with UACC-257; > 100 µM (inactive) with MDA-N. The GI50 with Hs-578T is 58.5 µM (inactive); in the assay on DU-145 it was 94.8 µM (inactive); in the assay on SF-268, 37.8 µM (inactive); with SK-OV-3 it was 30.5 µM (inactive); in the assay with OVCAR-4, > 100 µM (inactive); in the assay on HCC 2998, 96.8 µM (inactive). Besides, the GI50 with BT-549 is 67.9 µM (inactive).
